Laboratory results: patent US10954269B2, “Anti-inflammatory tripeptides” (Dr. August Wolff Gmbh & Co. KG Arzneimittel, priority 2013, dated 2021)

Experiments:
Conditions in all cases: substance 10^−9M
[1] = system: primary human T-cells; assay: Cytokine secretion on protein level in activated primary human T-cells (13-plex FACS / Luminex, supernatant); format: cell-based
How it was run: (§1)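 Cytokine protein in supernatant is read by multiplex FACS or Luminex. Tripeptide-treated HaCaT cells or blood-derived human T-cells are stimulated beforehand with PMA/Ionomycin or IFN-γ. The most relevant analytes are IL-1, IL-2, IL-6, IL-12p70, IL-17, IFN-γ and TNF-α, sampled 48 h and 72 h after stimulation.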

[2] = system: human keratinocyte cell line (HaCaT); assay: Cytokine secretion on protein level in activated human keratinocyte cell line HaCaT (13-plex FACS / Luminex, supernatant); format: cell-based
How it was run: as §1

[3] = system: primary murine T-cells; assay: Cytokine secretion on protein level in activated primary murine T-cells (13-plex FACS / Luminex, supernatant); format: cell-based, C57BL/6 mice
How it was run: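 T-cells from secondary lymphatic organs of naïve C57BL/6 mice, stimulated with PMA/Ionomycin or IFN-γ; supernatant cytokines measured by 13-plex FACS 48 h and 72 h after stimulation. In another run, PMA/Ionomycin-stimulated cells received compounds at 10^−7, 10^−9 and 10^−11 M, with IFN-γ, IL-17 and IL-10 measured by Luminex.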

[4] = primary human T-cells stimulated with IFN-γ
[5] = primary human T-cells stimulated with PBS
[6] = primary human T-cells stimulated with PMA/Ionomycin
[7] = HaCaT stimulated with PMA/Ionomycin
[8] = primary murine T-cells stimulated with IFN-γ
[9] = primary murine T-cells stimulated with PBS
[10] = primary murine T-cells stimulated with PMA/Ionomycin

C[C@@H]1C[C@H]2[C@@H]3CCC4=CC(=O)C=C[C@]4(C)[C@@]3(F)[C@@H](O)C[C@]2(C)[C@@]1(O)C(=O)CO [dexamethasone, reference compound] was tested, and the IL-1 cytokine concentration [1, 4] was 0 pg/mL, the IL-2 cytokine concentration [1, 4] was 0 pg/mL and the IL-4 cytokine concentration [1, 4] was 0 pg/mL. For the same compound, the IL-5 cytokine concentration [1, 4] was 0 pg/mL, the IL-6 cytokine concentration [1, 4] was 56.47 pg/mL and the IL-9 cytokine concentration [1, 4] was 0 pg/mL. The IL-10 cytokine concentration [1, 4] was 0 pg/mL, the IL-12 cytokine concentration [1, 4] was 0 pg/mL and the IL-13 cytokine concentration [1, 4] was 0 pg/mL. It also gave an IL-17 cytokine concentration [1, 4] of 0 pg/mL, an IL-22 cytokine concentration [1, 4] of 0 pg/mL and a TNF-α cytokine concentration [1, 4] of 0 pg/mL. It also gave an IFN-γ cytokine concentration [1, 5] of 0 pg/mL, an IL-1 cytokine concentration [1, 5] of 0 pg/mL and an IL-2 cytokine concentration [1, 5] of 0 pg/mL. The IL-4 cytokine concentration [1, 5] was 0 pg/mL, the IL-5 cytokine concentration [1, 5] was 0 pg/mL and the IL-6 cytokine concentration [1, 5] was 80.63 pg/mL. For the same compound, the IL-9 cytokine concentration [1, 5] was 13.05 pg/mL, the IL-10 cytokine concentration [1, 5] was 45.66 pg/mL and the IL-12 cytokine concentration [1, 5] was 0 pg/mL. It also gave an IL-13 cytokine concentration [1, 5] of 55.12 pg/mL, an IL-17 cytokine concentration [1, 5] of 69.45 pg/mL and an IL-22 cytokine concentration [1, 5] of 0 pg/mL. For the same compound, the TNF-a cytokine concentration [1, 5] was 41.45 pg/mL, the IFN-γ cytokine concentration [1, 6] was 888.61 pg/mL and the IL-1 cytokine concentration [1, 6] was 448.69 pg/mL. It also gave an IL-2 cytokine concentration [1, 6] of 2198.45 pg/mL, an IL-4 cytokine concentration [1, 6] of 79.02 pg/mL and an IL-5 cytokine concentration [1, 6] of 297.13 pg/mL. It also gave an IL-6 cytokine concentration [1, 6] of 1078.6 pg/mL, an IL-9 cytokine concentration [1, 6] of 392.74 pg/mL and an IL-10 cytokine concentration [1, 6] of 799.85 pg/mL. The IL-12 cytokine concentration [1, 6] was 0 pg/mL, the IL-13 cytokine concentration [1, 6] was 1099.59 pg/mL and the IL-17 cytokine concentration [1, 6] was 1134.18 pg/mL. The IL-22 cytokine concentration [1, 6] was 0 pg/mL, the TNF-a cytokine concentration [1, 6] was 3264.56 pg/mL and the IL-1 cytokine concentration ([2]; HaCaT stimulated with IFN-γ) was 0 pg/mL. For the same compound, the IL-2 cytokine concentration ([2]; HaCaT stimulated with IFN-γ) was 0 pg/mL, the IL-4 cytokine concentration ([2]; HaCaT stimulated with IFN-γ) was 39.78 pg/mL and the IL-5 cytokine concentration ([2]; HaCaT stimulated with IFN-γ) was 0 pg/mL. It also gave an IL-6 cytokine concentration ([2]; HaCaT stimulated with IFN-γ) of 204.99 pg/mL, an IL-9 cytokine concentration ([2]; HaCaT stimulated with IFN-γ) of 0 pg/mL and an IL-10 cytokine concentration ([2]; HaCaT stimulated with IFN-γ) of 0 pg/mL. It also gave an IL-12 cytokine concentration ([2]; HaCaT stimulated with IFN-γ) of 0 pg/mL, an IL-13 cytokine concentration ([2]; HaCaT stimulated with IFN-γ) of 0 pg/mL and an IL-17 cytokine concentration ([2]; HaCaT stimulated with IFN-γ) of 69.14 pg/mL. It also gave an IL-22 cytokine concentration ([2]; HaCaT stimulated with IFN-γ) of 0 pg/mL, a TNF-α cytokine concentration ([2]; HaCaT stimulated with IFN-γ) of 0 pg/mL and an IFN-γ cytokine concentration ([2]; HaCaT stimulated with PBS) of 12.98 pg/mL. It also gave an IL-1 cytokine concentration ([2]; HaCaT stimulated with PBS) of 0 pg/mL, an IL-2 cytokine concentration ([2]; HaCaT stimulated with PBS) of 0 pg/mL and an IL-4 cytokine concentration ([2]; HaCaT stimulated with PBS) of 133.98 pg/mL. For the same compound, the IL-5 cytokine concentration ([2]; HaCaT stimulated with PBS) was 0 pg/mL, the IL-6 cytokine concentration ([2]; HaCaT stimulated with PBS) was 44.79 pg/mL and the IL-9 cytokine concentration ([2]; HaCaT stimulated with PBS) was 0 pg/mL. For the same compound, the IL-10 cytokine concentration ([2]; HaCaT stimulated with PBS) was 30.89 pg/mL, the IL-12 cytokine concentration ([2]; HaCaT stimulated with PBS) was 0 pg/mL and the IL-13 cytokine concentration ([2]; HaCaT stimulated with PBS) was 0 pg/mL. The IL-17 cytokine concentration ([2]; HaCaT stimulated with PBS) was 0 pg/mL, the IL-22 cytokine concentration ([2]; HaCaT stimulated with PBS) was 0 pg/mL and the TNF-α cytokine concentration ([2]; HaCaT stimulated with PBS) was 0 pg/mL. For the same compound, the IFN-γ cytokine concentration [2, 7] was 0 pg/mL, the IL-1 cytokine concentration [2, 7] was 0 pg/mL and the IL-2 cytokine concentration [2, 7] was 0 pg/mL. The IL-4 cytokine concentration [2, 7] was 91.48 pg/mL, the IL-5 cytokine concentration [2, 7] was 0 pg/mL and the IL-6 cytokine concentration [2, 7] was 124.98 pg/mL. For the same compound, the IL-9 cytokine concentration [2, 7] was 0 pg/mL, the IL-10 cytokine concentration [2, 7] was 54.10 pg/mL and the IL-12 cytokine concentration [2, 7] was 0 pg/mL. It also gave an IL-13 cytokine concentration [2, 7] of 0 pg/mL, an IL-17 cytokine concentration [2, 7] of 0 pg/mL and an IL-22 cytokine concentration [2, 7] of 0 pg/mL. It also gave a TNF-α cytokine concentration [2, 7] of 0 pg/mL, an IL-1 cytokine concentration [3, 8] of 64.89 pg/mL and an IL-2 cytokine concentration [3, 8] of 70.49 pg/mL. For the same compound, the IL-4 cytokine concentration [3, 8] was 61.11 pg/mL, the IL-5 cytokine concentration [3, 8] was 208.28 pg/mL and the IL-6 cytokine concentration [3, 8] was 108.76 pg/mL. For the same compound, the IL-10 cytokine concentration [3, 8] was 905.55 pg/mL, the IL-13 cytokine concentration [3, 8] was 0 pg/mL and the IL-17 cytokine concentration [3, 8] was 52.48 pg/mL. It also gave an IL-21 cytokine concentration [3, 8] of 0 pg/mL, an IL-22 cytokine concentration [3, 8] of 37.13 pg/mL and an IL-27 cytokine concentration [3, 8] of 21.29 pg/mL. It also gave a TNF-α cytokine concentration [3, 8] of 32.32 pg/mL, an IFN-γ cytokine concentration [3, 9] of 0 pg/mL and an IL-1 cytokine concentration [3, 9] of 50.19 pg/mL. The IL-2 cytokine concentration [3, 9] was 98.48 pg/mL, the IL-4 cytokine concentration [3, 9] was 64.23 pg/mL and the IL-5 cytokine concentration [3, 9] was 249.8 pg/mL. It also gave an IL-6 cytokine concentration [3, 9] of 88.47 pg/mL, an IL-10 cytokine concentration [3, 9] of 586.12 pg/mL and an IL-13 cytokine concentration [3, 9] of 0 pg/mL. The IL-17 cytokine concentration [3, 9] was 0 pg/mL, the IL-21 cytokine concentration [3, 9] was 0 pg/mL and the IL-22 cytokine concentration [3, 9] was 69.18 pg/mL. The IL-27 cytokine concentration [3, 9] was 84.69 pg/mL, the TNF-α cytokine concentration [3, 9] was 67.18 pg/mL and the IFN-γ cytokine concentration [3, 10] was 1777.98 pg/mL. It also gave an IL-1 cytokine concentration [3, 10] of 160.95 pg/mL, an IL-2 cytokine concentration [3, 10] of 97.41 pg/mL and an IL-4 cytokine concentration [3, 10] of 57.84 pg/mL. For the same compound, the IL-5 cytokine concentration [3, 10] was 198.45 pg/mL, the IL-6 cytokine concentration [3, 10] was 144.26 pg/mL and the IL-10 cytokine concentration [3, 10] was 899.74 pg/mL. It also gave an IL-13 cytokine concentration [3, 10] of 0 pg/mL, an IL-17 cytokine concentration [3, 10] of 76.12 pg/mL and an IL-21 cytokine concentration [3, 10] of 0 pg/mL. It also gave an IL-22 cytokine concentration [3, 10] of 97.01 pg/mL, an IL-27 cytokine concentration [3, 10] of 94.12 pg/mL and a TNF-α cytokine concentration [3, 10] of 36.25 pg/mL.
